Literature values as cited in patent publication US7850723B1, “Method and apparatus for patient temperature control employing titration of therapy using EEG signals” (Innercool Therapies, Inc., priority 2005, dated 2010).

Tests used:
clots [1] = conditions: clots treated with UK at 4° C. and 28° C.; heating to 28° C.
[2] = in vivo
clots [3] = conditions: clots treated with plasminogen (2 mg) and SK (100 IU) in 15 ml PBS; clot temperature raised from 24° C. to 37° C.

In the case of urokinase [UK], the “fibrinolytic activity (conversion of plasminogen to plasmin)” value (clots [1]) is given as “complete conversion of all plasminogen to plasmin”.

In the case of `CCOC(=O)C1(c2ccccc2)CCN(C)CC1` [Meperidine], the “decrease of shivering threshold relative to vasoconstriction threshold” value [2] is given as “twice as much”.

For streptokinase [SK], the fibrinolytic activity (clots [3]) is given as “heating enhanced the fibrinolytic activity”.
